These results are taken from publication PMC5218480 (PLoS ONE, 2017).

The subject of the test is MV-4-11 cells. Nature of the test: Gene expression microarray analysis (Affymetrix PrimeView) and GSEA. The format is cell-based, human. Also on record: RFU PODN (11730768_x_at) / Fold change /veh PODN (11730768_x_at) / RFU LINC00158 (11744669_a_at) / Fold change /veh LINC00158 (11744669_a_at) / RFU DUSP10 (11751237_a_at) / Fold change /veh DUSP10 (11751237_a_at) / RFU ID3 (11757404_x_at) / Fold change /veh ID3 (11757404_x_at) / RFU PLEKHG5 (11737974_s_at) / Fold change /veh PLEKHG5 (11737974_s_at) / RFU LRRC4B (11730491_at) / Fold change /veh LRRC4B (11730491_at) / RFU GIMAP4 (11747438_a_at) / Fold change /veh GIMAP4 (11747438_a_at) / RFU KRT8 (11758183_x_at) / Fold change /veh KRT8 (11758183_x_at) / RFU CNN1 (11734310_a_at) / Fold change /veh CNN1 (11734310_a_at) / RFU VPS37D (11726825_at) / Fold change /veh VPS37D (11726825_at) / RFU C10orf10 (11716522_x_at) / Fold change /veh C10orf10 (11716522_x_at) / RFU KIR2DL2 /// KIR2DL4 /// KIR2DL5A /// KIR2DL5B /// KIR2DS1 /// KIR2DS2 /// KIR2DS3 /// KIR2DS4 /// KIR3DL3 /// KIR3DL3 /// KIR3DS1 (11738374_at) / Fold change /veh KIR2DL2 /// KIR2DL4 /// KIR2DL5A /// KIR2DL5B /// KIR2DS1 /// KIR2DS2 /// KIR2DS3 /// KIR2DS4 /// KIR3DL3 /// KIR3DL3 /// KIR3DS1 (11738374_at) / RFU C1QL1 (11718748_at) / Fold change /veh C1QL1 (11718748_at) / RFU TMPRSS4 (11747572_a_at) / Fold change /veh TMPRSS4 (11747572_a_at) / RFU HAMP (11756126_x_at) / Fold change /veh HAMP (11756126_x_at) / RFU RNFT2 (11725882_a_at) / Fold change /veh RNFT2 (11725882_a_at) / RFU NR4A2 (11747474_a_at) / Fold change /veh NR4A2 (11747474_a_at) / RFU ABCC12 (11746883_a_at) / Fold change /veh ABCC12 (11746883_a_at) / RFU TMEM136 (11760407_x_at) / Fold change /veh TMEM136 (11760407_x_at) / RFU CLDN22 /// WWC2 (11732394_at) / Fold change /veh CLDN22 /// WWC2 (11732394_at) / RFU HLA-DPB1 (11760878_x_at) / Fold change /veh HLA-DPB1 (11760878_x_at) / RFU SPINT1 (11716480_a_at) / Fold change /veh SPINT1 (11716480_a_at) / RFU GAP43 (11754022_s_at) / Fold change /veh GAP43 (11754022_s_at) / RFU A4GNT (11735810_at) / Fold change /veh A4GNT (11735810_at) / RFU PRB3 (11715151_x_at) / Fold change /veh PRB3 (11715151_x_at) / RFU TUBB4B (11761932_at) / Fold change /veh TUBB4B (11761932_at) / RFU CAPN14 (11732068_a_at) / Fold change /veh CAPN14 (11732068_a_at) / RFU TMCC2 (11721928_a_at) / Fold change /veh TMCC2 (11721928_a_at) / RFU IRGQ (11745062_a_at) / Fold change /veh IRGQ (11745062_a_at) / RFU FAM174B (11720279_a_at) / Fold change /veh FAM174B (11720279_a_at) / RFU TMPRSS4 (11748680_a_at) / Fold change /veh TMPRSS4 (11748680_a_at) / RFU FAM212B (11763350_a_at) / Fold change /veh FAM212B (11763350_a_at) / RFU PLEKHG5 (11743358_a_at) / Fold change /veh PLEKHG5 (11743358_a_at) / RFU ZSCAN30 (11745921_a_at) / Fold change /veh ZSCAN30 (11745921_a_at) / RFU CMKLR1 (11741424_a_at) / Fold change /veh CMKLR1 (11741424_a_at) / RFU LOC101060620 /// MAPK8IP1 (11723275_at) / Fold change /veh LOC101060620 /// MAPK8IP1 (11723275_at) / RFU SPTSSB (11747773_x_at) / Fold change /veh SPTSSB (11747773_x_at) / RFU PRSS12 (11739890_at) / Fold change /veh PRSS12 (11739890_at) / RFU BIN1 (11741810_x_at) / Fold change /veh BIN1 (11741810_x_at) / RFU WNT11 (11732464_a_at) / Fold change /veh WNT11 (11732464_a_at) / RFU C10orf10 (11716521_a_at) / Fold change /veh C10orf10 (11716521_a_at) / RFU C5orf56 (11738089_at) / Fold change /veh C5orf56 (11738089_at) / RFU CYB561 (11721691_x_at) / Fold change /veh CYB561 (11721691_x_at) / RFU ANKRD19P (11752326_a_at) / Fold change /veh ANKRD19P (11752326_a_at) / RFU OR2T12 /// OR2T33 /// OR2T8 (11738714_s_at) / Fold change /veh OR2T12 /// OR2T33 /// OR2T8 (11738714_s_at) / RFU VCAN (11748164_a_at) / Fold change /veh VCAN (11748164_a_at) / RFU JSRP1 (11732532_at) / Fold change /veh JSRP1 (11732532_at) / RFU KRTAP10-11 (11738290_x_at) / Fold change /veh KRTAP10-11 (11738290_x_at) / RFU MYO3A (11730013_a_at) / Fold change /veh MYO3A (11730013_a_at) / RFU EBF3 (11725865_a_at) / Fold change /veh EBF3 (11725865_a_at) / RFU CAMK2N1 (11719241_x_at) / Fold change /veh CAMK2N1 (11719241_x_at) / RFU C5orf56 (11738088_a_at) / Fold change /veh C5orf56 (11738088_a_at) / RFU OLFML3 (11715873_a_at) / Fold change /veh OLFML3 (11715873_a_at) / RFU LOC100653217 /// NTM (11731650_a_at) / Fold change /veh LOC100653217 /// NTM (11731650_a_at) / RFU MAPK11 (11762145_a_at) / Fold change /veh MAPK11 (11762145_a_at) / RFU FIZ1 (11724087_x_at) / Fold change /veh FIZ1 (11724087_x_at) / RFU OASL (11726364_x_at) / Fold change /veh OASL (11726364_x_at) / RFU SOX15 (11748057_x_at) / Fold change /veh SOX15 (11748057_x_at) / RFU CD79A (11719716_a_at) / Fold change /veh CD79A (11719716_a_at) / RFU HIST1H1D (11736915_at) / Fold change /veh HIST1H1D (11736915_at) / RFU CASKIN2 (11723855_a_at) / Fold change /veh CASKIN2 (11723855_a_at) / RFU LOC730098 (11760151_x_at) / Fold change /veh LOC730098 (11760151_x_at) / RFU OR4N2 (11742367_at) / Fold change /veh OR4N2 (11742367_at) / RFU PRRT2 (11749266_a_at) / Fold change /veh PRRT2 (11749266_a_at) / RFU SNX32 (11753110_a_at) / Fold change /veh SNX32 (11753110_a_at) / RFU CDHR5 (11726645_a_at) / Fold change /veh CDHR5 (11726645_a_at) / RFU RCAN1 (11760418_a_at) / Fold change /veh RCAN1 (11760418_a_at) / RFU FAM167A (11723789_a_at) / Fold change /veh FAM167A (11723789_a_at) / RFU FAM26E (11764081_at) / Fold change /veh FAM26E (11764081_at) / RFU ISYNA1 (11749810_s_at) / Fold change /veh ISYNA1 (11749810_s_at) / RFU ACY1 (11761880_at) / Fold change /veh ACY1 (11761880_at) / RFU 11764098_at / Fold change /veh 11764098_at / RFU SAMD14 (11745864_x_at) / Fold change /veh SAMD14 (11745864_x_at) / RFU NPB (11741838_a_at) / Fold change /veh NPB (11741838_a_at) / RFU TMPRSS6 (11731388_a_at) / Fold change /veh TMPRSS6 (11731388_a_at) / RFU KRTAP10-2 (11738614_at) / Fold change /veh KRTAP10-2 (11738614_at) / RFU ARHGAP8 /// PRR5-ARHGAP8 (11727945_x_at) / Fold change /veh ARHGAP8 /// PRR5-ARHGAP8 (11727945_x_at) / RFU KRTAP5-7 /// NADSYN1 (11734609_at) / Fold change /veh KRTAP5-7 /// NADSYN1 (11734609_at) / RFU RASL12 (11751679_a_at) / Fold change /veh RASL12 (11751679_a_at) / RFU CDKN2B (11736163_a_at) / Fold change /veh CDKN2B (11736163_a_at) / RFU PRF1 (11729649_at) / Fold change /veh PRF1 (11729649_at) / RFU, ZNF638 /// ZNF638-IT1 / Fold change vs veh, ZNF638 /// ZNF638-IT1 / RFU, PANK3 / Fold change vs veh, PANK3 / RFU, SH3YL1 / Fold change vs veh, SH3YL1 / RFU, ZEB2 / Fold change vs veh, ZEB2 / RFU, NRIP1 / Fold change vs veh, NRIP1 / RFU, PTTG1IP / Fold change vs veh, PTTG1IP / RFU, CAPN2 / Fold change vs veh, CAPN2 / RFU, MED14 / Fold change vs veh, MED14 / RFU, SNORA58 / Fold change vs veh, SNORA58 / RFU, C1orf63 / Fold change vs veh, C1orf63 / RFU, LRRFIP1 / Fold change vs veh, LRRFIP1 / RFU, NDUFAF7 / Fold change vs veh, NDUFAF7 / RFU, SLC12A2 / Fold change vs veh, SLC12A2 / RFU, IBTK / Fold change vs veh, IBTK / RFU, ESF1 / Fold change vs veh, ESF1 / Fold change vs veh, TMEM50B / RFU, TAOK1 / Fold change vs veh, TAOK1 / RFU, ACBD3 / Fold change vs veh, ACBD3 / RFU, TMA16 / Fold change vs veh, TMA16 / RFU, RWDD3 / Fold change vs veh, RWDD3 / RFU, BCAT1 / Fold change vs veh, BCAT1 / RFU, EDEM3 / Fold change vs veh, EDEM3 / RFU, TMEM33 / Fold change vs veh, TMEM33 / RFU, WDR75 / Fold change vs veh, WDR75 / RFU, AHCTF1 / Fold change vs veh, AHCTF1 / RFU, TFRC / Fold change vs veh, TFRC / RFU, ZDHHC17 / Fold change vs veh, ZDHHC17 / RFU, NOM1 / Fold change vs veh, NOM1 / RFU, ARL8B / Fold change vs veh, ARL8B / RFU, ZBTB11 / Fold change vs veh, ZBTB11 / RFU, TAMM41 / Fold change vs veh, TAMM41 / RFU, KIAA1704 /// LOC100996395 / Fold change vs veh, KIAA1704 /// LOC100996395 / RFU, ING1 / Fold change vs veh, ING1 / RFU, TRMT61B / Fold change vs veh, TRMT61B / RFU, FUBP3 / Fold change vs veh, FUBP3 / RFU, TP53 / Fold change vs veh, TP53 / RFU, TNKS2 / Fold change vs veh, TNKS2 / RFU, ZFP14 / Fold change vs veh, ZFP14 / RFU, ACTR2 / Fold change vs veh, ACTR2 / RFU, PPP3R1 / Fold change vs veh, PPP3R1 / RFU, PIK3R1 / Fold change vs veh, PIK3R1 / RFU, HNRNPA1 / Fold change vs veh, HNRNPA1 / RFU, RNF170 / Fold change vs veh, RNF170 / RFU, ZNF28 / Fold change vs veh, ZNF28 / RFU, RNGTT / Fold change vs veh, RNGTT / RFU, OGT / Fold change vs veh, OGT / RFU, BRD1 / Fold change vs veh, BRD1 / RFU, MARS / Fold change vs veh, MARS / RFU, ZNF655 / Fold change vs veh, ZNF655 / RFU, FAHD1 / Fold change vs veh, FAHD1 / RFU, BDP1 / Fold change vs veh, BDP1 / RFU, LRRCC1 / Fold change vs veh, LRRCC1 / RFU, ARID1A / Fold change vs veh, ARID1A / RFU, ZNF146 / Fold change vs veh, ZNF146 / RFU, ZNF330 / Fold change vs veh, ZNF330 / RFU, GPN3 / Fold change vs veh, GPN3 / RFU, C9orf123 / Fold change vs veh, C9orf123 / RFU, N4BP2L2 / Fold change vs veh, N4BP2L2 / RFU, ARFIP1 / Fold change vs veh, ARFIP1 / RFU, FAM179B / Fold change vs veh, FAM179B / RFU, BCL10 / Fold change vs veh, BCL10 / RFU, UHRF1BP1L / Fold change vs veh, UHRF1BP1L / RFU, BET1 / Fold change vs veh, BET1 / RFU, CNOT2 / Fold change vs veh, CNOT2 / RFU, ZNF268 / Fold change vs veh, ZNF268 / Fold change vs veh, ZNF507 / RFU, DGCR2 / Fold change vs veh, DGCR2 / RFU, WDSUB1 / Fold change vs veh, WDSUB1 / Fold change vs veh, HSP90B1 /// MIR3652 / RFU, ADSS / Fold change vs veh, ADSS / RFU, GK / Fold change vs veh, GK / RFU, ZNF148 / Fold change vs veh, ZNF148 / RFU, TAF9 / Fold change vs veh, TAF9 / RFU, SLC1A5 / Fold change vs veh, SLC1A5 / RFU, SLMO2 / Fold change vs veh, SLMO2 / RFU, ABCC4 / Fold change vs veh, ABCC4 / RFU, LOC101060439 /// RAP1B / Fold change vs veh, LOC101060439 /// RAP1B / RFU, RFX7 / Fold change vs veh, RFX7 / RFU, GTPBP10 / Fold change vs veh, GTPBP10 / RFU, CNEP1R1 / Fold change vs veh, CNEP1R1 / RFU, BIVM-ERCC5 /// ERCC5 / Fold change vs veh, BIVM-ERCC5 /// ERCC5 / RFU, ILF3 / Fold change vs veh, ILF3 / RFU 11762660_at / Fold change /veh 11762660_at / RFU VCAN (11757783_s_at) / Fold change /veh VCAN (11757783_s_at) / RFU DDX43 (11728927_at) / Fold change /veh DDX43 (11728927_at) / RFU KRT8 (11758188_x_at) / Fold change /veh KRT8 (11758188_x_at) / RFU NKD1 (11759106_at) / Fold change /veh NKD1 (11759106_at) / RFU SRD5A1 (11742802_a_at) / Fold change /veh SRD5A1 (11742802_a_at) / RFU TPSAB1 /// TPSB2 (11721975_s_at) / Fold change /veh TPSAB1 /// TPSB2 (11721975_s_at) / RFU GSTM3 (11746129_a_at) / Fold change /veh GSTM3 (11746129_a_at) / RFU IL23R (11737362_x_at) / Fold change /veh IL23R (11737362_x_at) / RFU TMEM51 (11727254_a_at) / Fold change /veh TMEM51 (11727254_a_at) / RFU PIWIL2 (11732686_x_at) / Fold change /veh PIWIL2 (11732686_x_at) / RFU ORM1 (11744905_x_at) / Fold change /veh ORM1 (11744905_x_at) / RFU CCDC152 (11743942_at) / Fold change /veh CCDC152 (11743942_at) / RFU ECM1 (11717891_a_at) / Fold change /veh ECM1 (11717891_a_at) / RFU IL23R (11748794_a_at) / Fold change /veh IL23R (11748794_a_at) / RFU TNFAIP8L3 (11732012_x_at) / Fold change /veh TNFAIP8L3 (11732012_x_at) / RFU MBOAT4 (11741988_at) / Fold change /veh MBOAT4 (11741988_at) / RFU 11764193_at / Fold change /veh 11764193_at / RFU TMEM53 (11763286_at) / Fold change /veh TMEM53 (11763286_at) / RFU MAGEB2 (11727129_at) / Fold change /veh MAGEB2 (11727129_at) / RFU TMEM200A (11744735_a_at) / Fold change /veh TMEM200A (11744735_a_at) / RFU CCDC152 (11751479_a_at) / Fold change /veh CCDC152 (11751479_a_at) / RFU FAM211A (11726209_a_at) / Fold change /veh FAM211A (11726209_a_at) / RFU RGS16 (11746705_a_at) / Fold change /veh RGS16 (11746705_a_at) / RFU VCAN (11755009_s_at) / Fold change /veh VCAN (11755009_s_at) / RFU RHOB (11743442_s_at) / Fold change /veh RHOB (11743442_s_at) / RFU RGS16 (11720943_a_at) / Fold change /veh RGS16 (11720943_a_at) / RFU RGS16 (11720944_at) / Fold change /veh RGS16 (11720944_at) / RFU, VPS4B / Fold change vs veh, VPS4B / RFU, CREB1 / Fold change vs veh, CREB1 / RFU, DNAJC13 / Fold change vs veh, DNAJC13 / RFU, GNAQ / Fold change vs veh, GNAQ / RFU, CDK5R1 / Fold change vs veh, CDK5R1 / RFU, ZRANB3 / Fold change vs veh, ZRANB3 / RFU, CUL4A / Fold change vs veh, CUL4A / RFU, CCNY / Fold change vs veh, CCNY / RFU, UFL1 / Fold change vs veh, UFL1 / RFU, COG3 / Fold change vs veh, COG3 / RFU, DIAPH2 / Fold change vs veh, DIAPH2 / RFU, SKA2 / Fold change vs veh, SKA2 / RFU, AFF3 / Fold change vs veh, AFF3 / RFU, LMF1 / Fold change vs veh, LMF1 / RFU, IPO11 / Fold change vs veh, IPO11 / RFU, DFFB / Fold change vs veh, DFFB / RFU, FOXP1 / Fold change vs veh, FOXP1 / RFU, CARD8 / Fold change vs veh, CARD8 / RFU, STRN3 / Fold change vs veh, STRN3 / RFU, ADK / Fold change vs veh, ADK / RFU, RASSF2 / Fold change vs veh, RASSF2 / RFU, WIPF1 / Fold change vs veh, WIPF1 / RFU, LARP1B / Fold change vs veh, LARP1B / RFU, RASA1 / Fold change vs veh, RASA1 / RFU, RB1 / Fold change vs veh, RB1 / RFU, PPFIA1 / Fold change vs veh, PPFIA1 / RFU, MAT2A / Fold change vs veh, MAT2A / RFU, CCT5 / Fold change vs veh, CCT5 / RFU, WDR92 / Fold change vs veh, WDR92 / RFU, CUX1 / Fold change vs veh, CUX1 / RFU, TTC7A / Fold change vs veh, TTC7A / RFU, TMEM135 / Fold change vs veh, TMEM135 / RFU, DEPTOR / Fold change vs veh, DEPTOR / RFU, CPM / Fold change vs veh, CPM / RFU, DNAJB6 / Fold change vs veh, DNAJB6 / RFU, CACNA2D3 / Fold change vs veh, CACNA2D3 / RFU, DTX4 / Fold change vs veh, DTX4 / RFU, TFCP2 / Fold change vs veh, TFCP2 / RFU, GMCL1 /// GMCL1P1 / Fold change vs veh, GMCL1 /// GMCL1P1 / RFU, AEBP2 / Fold change vs veh, AEBP2 / RFU, SNHG1 /// SNORD22 /// SNORD25 /// SNORD26 /// SNORD27 /// SNORD28 /// SNORD29 /// SNORD31 / Fold change vs veh, SNHG1 /// SNORD22 /// SNORD25 /// SNORD26 /// SNORD27 /// SNORD28 /// SNORD29 /// SNORD31 / Fold change (Aza/veh), C12orf56 (ProbeSet 11735607_a_at) / Fold change (ACY-1035/veh), C12orf56 (ProbeSet 11735607_a_at) / Fold change (Aza/veh), FGFR1OP (ProbeSet 11751329_s_at) / Fold change (ACY-1035/veh), FGFR1OP (ProbeSet 11751329_s_at) / Fold change (Aza/veh), VPS36 (ProbeSet 11739960_a_at) / Fold change (ACY-1035/veh), VPS36 (ProbeSet 11739960_a_at) / RFU SYPL1 (11715823_x_at) / Fold change /veh SYPL1 (11715823_x_at) / RFU IGFBP7 (11715501_s_at) / Fold change /veh IGFBP7 (11715501_s_at) / RFU REEP3 (11722064_at) / Fold change /veh REEP3 (11722064_at) / RFU IGLL1 (11728026_x_at) / Fold change /veh IGLL1 (11728026_x_at): dose or concentration left out as unconfirmed. Conditions: ProbeSet 11733108_at; LIST D.

Turning to `Nc1ccc(-c2cccs2)cc1NC(=O)c1ccc2c(c1)cc(C1CC1)n2CCN1CCOCC1` [ACY-1035], the “Fold change vs veh, GNAQ” value was found to be 0.91.
